Laboratory results from patent US6451812B1, “Farnesyl protein transferase inhibitors for treating arthropathies” (Janssen Pharmaceutica N.V., priority 1998, dated 2002).

Test system: DBA1/J mice
Assay: Collagen type II induced arthritis, prophylactic treatment (Example 1)
Format: in vivo
Details: for Ankylosis score / Incidence of ankylosis (% of animals affected) / Incidence of arthritis (% of animals affected) / Mean Arthritic Score / Mean number of affected paws: 100 mpk (2 ×) orally, treated day 20-36
Description: Male DBA1/J mice were immunized intradermally with collagen type II emulsified in complete Freund's Adjuvant on day 0 and day 21. Treatment of mice was started on day 20 (10 animals/treatment group). Mice were treated orally twice daily (6 hours time interval) with vehicle [DMSO: cremophor: 0.9% NaCl solution, 1:1:8 (v:v:v)] or compound 75 at a dose of 100 mg/kg. Three times per week symptoms of arthritis were scored. Animals were treated till day 36, at day 37 animals were sacrificed, blood was collected for analysis of anti-collagen antibodies, radiographs were made and paws were fixed for histological evaluation. […] Trained lab personnel evaluated the severity and incidence of the arthritic symptoms at regular intervals without knowing which animals had received vehicle or drug.
In Table 9, the mean arthritic score is shown. For each paw, a score ranging from 0 (normal) to 2 (maximal redness and swelling) is given. The score for the 4 paws is summed up and averaged for the 10 animals per group (=Mean arthritic score).
Table 11 summarizes the results of the observations for the occurrence of ankylosis as the arthritis progresses. Each paw is scored as follows: 0 for no ankylosis, 1 for ankylosis. Again the results for the four paws are summed up and averaged for the 10 animals. At the end of the experiment, the ankylosis score in the vehicle group (3.1) is clearly higher than that in the group treated with Compound 75 (1.2).

[1] = 100 mg/kg orally twice daily, day 20-36
[2] = 100 mg/kg orally twice daily, versus vehicle

## Cn1cncc1C(N)(c1ccc(Cl)cc1)c1ccc2c(c1)c(-c1cccc(Cl)c1)cc(=O)n2C (single isomer, unassigned; (+)) [Compound 75, (+)-6-[amino(4-chlorophenyl)(1-methyl-1H-imidazol-5-yl)methyl]-4-(3-chlorophenyl)-1-methyl-2(1H)-quinolinone]
[1]
  lethalities: no lethalities were observed
  signs of toxicity: did not show any signs of toxicity
[2]
  effect on mean arthritic score (in words): clearly suppresses the arthritic score
  effect on mean number of affected paws (in words): reduces that number
100 mg/kg orally twice daily, versus vehicle, listed as compound 75
  effect on mean arthritic score (in words): reduces the mean arthritic score
100 mg/kg orally twice daily, summary in text of Table 12
  incidence of ankylosis: 60%
Day 22 after immunization
  Ankylosis score: 0.00
  Incidence of ankylosis (% of animals affected): 0%
  Incidence of arthritis (% of animals affected): 0%
  Mean Arthritic Score: 0.00
  Mean number of affected paws: 0.00
Day 24 after immunization
  Ankylosis score: 0.00
  Incidence of ankylosis (% of animals affected): 0%
  Incidence of arthritis (% of animals affected): 20%
  Mean Arthritic Score: 0.05
  Mean number of affected paws: 0.20
Day 27 after immunization
  Ankylosis score: 0.30
  Incidence of ankylosis (% of animals affected): 10%
  Incidence of arthritis (% of animals affected): 40%
  Mean Arthritic Score: 0.60
  Mean number of affected paws: 0.80
Day 29 after immunization
  Ankylosis score: 0.80
  Incidence of ankylosis (% of animals affected): 50%
  Incidence of arthritis (% of animals affected): 80%
  Mean Arthritic Score: 0.90
  Mean number of affected paws: 1.30
Day 31 after immunization
  Ankylosis score: 1.10
  Incidence of ankylosis (% of animals affected): 50%
  Incidence of arthritis (% of animals affected): 70%
  Mean Arthritic Score: 1.03
  Mean number of affected paws: 1.70
Day 34 after immunization
  Ankylosis score: 1.20
  Incidence of ankylosis (% of animals affected): 50%
  Incidence of arthritis (% of animals affected): 60%
  Mean Arthritic Score: 0.80
  Mean number of affected paws: 1.20
Day 36 after immunization
  Ankylosis score: 1.40
  Incidence of ankylosis (% of animals affected): 60%
  Incidence of arthritis (% of animals affected): 70%
  Mean Arthritic Score: 0.75
  Mean number of affected paws: 1.30
Day 37 after immunization (end of the experiment), 100 mg/kg
  Ankylosis score: 1.2
Day 37 after immunization
  Incidence of ankylosis (% of animals affected): 60%
  Incidence of arthritis (% of animals affected): 60%
  Mean Arthritic Score: 0.80
  Mean number of affected paws: 1.30
